Test results as given in PubChem BioAssay AID1963856 (Molecular Pharmacology Branch, DTP, NCI, 2024).

Tested on: LG0567-F671-PDC KRAS tumor spheroid viability
Test: Anticancer human tumor LG0567-F671-PDC patient-derived lung adenocarcinoma cell line growth inhibition [KRAS2]
Settings: spheroids with HUVEC and MSC; for IC50: curve of first compound; for viability, T/C: stronger effect = lower value
Method in brief: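 Combination screen of spheroid viability in tumor-cell co-cultures with endothelial (HUVEC) and mesenchymal stem cell stroma. Each agent was tested in half-log dilutions, topping at clinical Cmax or at 10 microM without a known Cmax.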
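Further: drug exposure lasted seven days after spheroids formed for three days.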
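Wherever viability, T/C is given: 100% = DMSO vehicle control viability.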

## CC(=O)Nc1cccc(-n2c(=O)n(C3CC3)c(=O)c3c(Nc4ccc(I)cc4F)n(C)c(=O)c(C)c32)c1 + C=CC(=O)N1CCN(c2nc(=O)n(-c3c(C)ccnc3C(C)C)c3nc(-c4c(O)cccc4F)c(F)cc23)C(C)C1
Second compound 0.1 µM
  IC50: < 0.1 nM
Second compound 0.316 µM
  IC50: < 0.1 nM
Second compound 1 µM
  IC50: < 0.1 nM
Second compound 3.16 µM
  IC50: < 0.1 nM
Second compound 10 µM
  IC50: < 0.1 nM
Second compound 0.1 µM, first compound 0.0001 µM
  viability, T/C: 26.4%
Second compound 0.1 µM, first compound 0.000316 µM
  viability, T/C: 25.5%
Second compound 0.1 µM, first compound 0.001 µM
  viability, T/C: 26.4%
Second compound 0.1 µM, first compound 0.00316 µM
  viability, T/C: 27.6%
Second compound 0.1 µM, first compound 0.01 µM
  viability, T/C: 12.1%
Second compound 0.1 µM, first compound 0.0316 µM
  viability, T/C: 4.13%
Second compound 0.316 µM, first compound 0.0001 µM
  viability, T/C: 24.9%
Second compound 0.316 µM, first compound 0.000316 µM
  viability, T/C: 24.7%
Second compound 0.316 µM, first compound 0.001 µM
  viability, T/C: 28.9%
Second compound 0.316 µM, first compound 0.00316 µM
  viability, T/C: 14.2%
Second compound 0.316 µM, first compound 0.01 µM
  viability, T/C: 8.8%
Second compound 0.316 µM, first compound 0.0316 µM
  viability, T/C: 2.68%
Second compound 1 µM, first compound 0.0001 µM
  viability, T/C: 30.5%
Second compound 1 µM, first compound 0.000316 µM
  viability, T/C: 28.2%
Second compound 1 µM, first compound 0.001 µM
  viability, T/C: 22.8%
Second compound 1 µM, first compound 0.00316 µM
  viability, T/C: 17.7%
Second compound 1 µM, first compound 0.01 µM
  viability, T/C: 8.78%
Second compound 1 µM, first compound 0.0316 µM
  viability, T/C: 3.83%
Second compound 3.16 µM, first compound 0.0001 µM
  viability, T/C: 26.7%
Second compound 3.16 µM, first compound 0.000316 µM
  viability, T/C: 27.7%
Second compound 3.16 µM, first compound 0.001 µM
  viability, T/C: 20.1%
Second compound 3.16 µM, first compound 0.00316 µM
  viability, T/C: 10.5%
Second compound 3.16 µM, first compound 0.01 µM
  viability, T/C: 10.7%
Second compound 3.16 µM, first compound 0.0316 µM
  viability, T/C: 3.27%
Second compound 10 µM, first compound 0.0001 µM
  viability, T/C: 20.3%
Second compound 10 µM, first compound 0.000316 µM
  viability, T/C: 18.9%
Second compound 10 µM, first compound 0.001 µM
  viability, T/C: 16.9%
Second compound 10 µM, first compound 0.00316 µM
  viability, T/C: 11.7%
Second compound 10 µM, first compound 0.01 µM
  viability, T/C: 6.78%
Second compound 10 µM, first compound 0.0316 µM
  viability, T/C: 4.36%
